# Assay results taken from patent US12686668B2, “Leukotriene synthesis inhibitors” (Naegis Pharmaceuticals Inc., priority 2019, dated 2026).
# How the values were obtained:
# [1] = test system: LPS-induced neutrophil infiltration into the lung; assay: Lipopolysaccharide (LPS) mouse lung inflammation model; format: in vivo, CD-1 mice; conditions: 10 mg/kg oral, 1 hr before and 2 hrs after LPS 2.5 mg/kg intratracheal, BAL 6 hr post-LPS
# Method: In this model, LPS was instilled into the lungs of mice to induce a neutrophilia in the lung tissue. The neutrophilia can be measured in the BAL fluid during lung lavage at various times after challenge with LPS. The neutrophilia develops with a significant increase in cells in the BAL after 6 hrs and achieves a maximum response by 24 hrs. CD-1 mice received lipopolysaccharide (LPS) 2.5 mg/kg in phosphate buffered saline (PBS) or PBS in a volume of 50 μL by intracheal instillation into the lung. The animals were lightly anesthetized using isofluorane to enable application of the LPS. When anesthetized the animals were placed on a board at an angle of 45°. The tongue was rolled to one side and LPS was administered directly into the trachea in a volume of 50 μL. The animal remained in position for 1-2 minutes to ensure the LPS remained in the lung. At the end of the LPS challenge time, animals were euthanized by an overdose of isofluorane. The trachea was exposed and the lungs were intubated using a 21 G catheter tube. The lungs were lavaged with 2×1 mL of PBS at room temperature. […] The differential cell counts were determined using an automated cell counter (Abraxia) set to measure mouse cells. Cell concentration of the resuspended sample was expressed as total cells recovered in the total volume of recovered BAL. […]
# [2] = target: T1, recombinant human leukotriene A4 hydrolase enzyme (Homo sapiens, UniProt P09960); assay: Amino-peptidase assay, PGP; format: biochemical; conditions: concentration not given
# T1 construct: purchased Cayman Chemical 10007817
# T1 sequence (P09960 1-611): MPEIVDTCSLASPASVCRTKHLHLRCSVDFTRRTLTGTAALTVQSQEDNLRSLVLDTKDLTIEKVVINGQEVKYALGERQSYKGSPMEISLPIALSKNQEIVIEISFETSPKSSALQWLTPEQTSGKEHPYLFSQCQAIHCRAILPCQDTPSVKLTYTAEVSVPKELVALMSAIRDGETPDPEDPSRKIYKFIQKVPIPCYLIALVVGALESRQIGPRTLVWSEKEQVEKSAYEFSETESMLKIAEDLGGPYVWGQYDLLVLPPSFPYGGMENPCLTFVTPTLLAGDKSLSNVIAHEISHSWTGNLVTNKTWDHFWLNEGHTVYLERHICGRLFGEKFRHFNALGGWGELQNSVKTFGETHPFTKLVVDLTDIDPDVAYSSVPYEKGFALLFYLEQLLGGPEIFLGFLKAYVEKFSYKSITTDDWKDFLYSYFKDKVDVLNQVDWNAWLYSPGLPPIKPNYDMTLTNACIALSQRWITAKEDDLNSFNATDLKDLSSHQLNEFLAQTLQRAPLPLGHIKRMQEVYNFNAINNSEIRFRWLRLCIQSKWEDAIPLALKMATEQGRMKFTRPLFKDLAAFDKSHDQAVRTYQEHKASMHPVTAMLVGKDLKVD
# Method: A series of compound concentrations were pre-incubated with 50 ng of recombinant human leukotriene A4 hydrolase enzyme (Cayman Chemical, 10007817) in 50 L assay buffer (50 mM Tris-HCl, 100 mM KCl). The reaction was stimulated by adding 50 L 1 mM proline-glycine-proline (Bachem, H-7284) and incubated for 30 minutes at 37° C. The reaction was stopped with the addition of 150 μL of glacial acetic acid. The amount of free proline released from the peptide was detected through a reaction with ninhydrin. 150 μL of 25 mg/mL ninhydrin (BDH, B10132) in 60:40 acetic acid/water was added to each sample, and boiled for 30 minutes at 100° C. and once samples had cooled to room temperature, 350 μL of toluene was added to extract the ninhydrin reaction product. The amount of free proline was determined by comparing the absorbance at 520 nm to the L-proline (Sigma Aldrich, 81709) reference standard. Inhibition of free proline production was calculated based on control samples.
% Inhibition aminopeptidase-PGP activity of LTA4H [2] [%],SMILES,Effect on LPS-induced neutrophil infiltration into the lung (BAL) [1]
–,"CCC(O)(CCc1ccc(Oc2nc3c(SC)cccc3s2)c(OC)c1)C(F)(F)F (centres unmarked) [Compound 104, 1-{3-methoxy-4-[(4-methylsulfanyl-1,3-benzothiazol-2-yl)oxy]phenyl}-3-(trifluoromethyl)pentan-3-ol]",inhibitory effect
>75,"CC(O)(CCc1ccc(OCc2ccc3ccccc3n2)cc1)C(F)(F)F (centres unmarked) [Compound 183, 1,1,1-trifluoro-2-methyl-4-[4-(quinolin-2-ylmethoxy)phenyl]butan-2-ol]",–
